Laboratory results reported in the supplement of paper PMC10307832.

What was measured:
Experiment in all cases: relative viability (nuclei count vs DMSO), 5 days (fraction); higher = more cells survive
AZ505 + Bortezomib = compound: C1CCC(CC1)N(CCNCCC2=C3C(=C(C=C2)O)NC(=O)CO3)C(=O)CCNCCC4=CC(=C(C=C4)Cl)Cl [AZ505] + CC(C)C[C@H](NC(=O)[C@H](Cc1ccccc1)NC(=O)c1cnccn1)B(O)O [Bortezomib] (partner 0.002 µM)
In short: (§1)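 Lung cancer cell lines were seeded in 1536-well plates and dosed by pin tool the next day, with either a single drug or a fixed anchor-drug dose combined with five library-drug doses (not always all listed) spaced in √10 steps. Five days later, one step fixed the cells and stained their nuclei (final 0.05% Triton X-100, 1% formaldehyde, 1 ug/ml Hoechst), and nuclei were counted on 4× images. Relative viability is the nuclei count in treated wells divided by the count in vehicle wells, and each value is the median of duplicate plates.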

AZ505 + Luminespib = compound: C1CCC(CC1)N(CCNCCC2=C3C(=C(C=C2)O)NC(=O)CO3)C(=O)CCNCCC4=CC(=C(C=C4)Cl)Cl [AZ505] + CCNC(=O)c1noc(-c2cc(C(C)C)c(O)cc2O)c1-c1ccc(CN2CCOCC2)cc1 [Luminespib] (partner 0.01 µM)
In short: as §1

AZ505 + Olaparib = compound: C1CCC(CC1)N(CCNCCC2=C3C(=C(C=C2)O)NC(=O)CO3)C(=O)CCNCCC4=CC(=C(C=C4)Cl)Cl [AZ505] + O=C(c1cc(Cc2n[nH]c(=O)c3ccccc23)ccc1F)N1CCN(C(=O)C2CC2)CC1 [Olaparib] (partner 8 µM)
In short: as §1

Dactolisib + Crizotinib = compound: Cn1c(=O)n(-c2ccc(C(C)(C)C#N)cc2)c2c3cc(-c4cnc5ccccc5c4)ccc3ncc21 [Dactolisib] + C[C@@H](Oc1cc(-c2cnn(C3CCNCC3)c2)cnc1N)c1c(Cl)ccc(F)c1Cl [Crizotinib] (partner 1 µM)
In short: as §1

Cell Line: UMC-11
- relative viability (AZ505 + Bortezomib; first compound 0.08 µM): 0.661
- relative viability (AZ505 + Bortezomib; first compound 0.253 µM): 0.872
- relative viability (AZ505 + Bortezomib; first compound 0.8 µM): 0.68
- relative viability (AZ505 + Bortezomib; first compound 2.53 µM): 0.734
- relative viability (AZ505 + Bortezomib; first compound 8 µM): 0.939
- relative viability (AZ505 + Luminespib; first compound 0.08 µM): 1.05
- relative viability (AZ505 + Luminespib; first compound 0.253 µM): 1.04
- relative viability (AZ505 + Luminespib; first compound 0.8 µM): 0.996
- relative viability (AZ505 + Luminespib; first compound 2.53 µM): 1.01
- relative viability (AZ505 + Luminespib; first compound 8 µM): 1.03
- relative viability (AZ505 + Olaparib; first compound 0.08 µM): 0.366
- relative viability (AZ505 + Olaparib; first compound 0.253 µM): 0.372
- relative viability (AZ505 + Olaparib; first compound 0.8 µM): 0.363
- relative viability (AZ505 + Olaparib; first compound 2.53 µM): 0.383
- relative viability (AZ505 + Olaparib; first compound 8 µM): 0.381
- relative viability (Dactolisib + Crizotinib; first compound 0.002 µM): 0.556
- relative viability (Dactolisib + Crizotinib; first compound 0.006325 µM): 0.585
- relative viability (Dactolisib + Crizotinib; first compound 0.02 µM): 0.403
- relative viability (Dactolisib + Crizotinib; first compound 0.06325 µM): 0.275
- relative viability (Dactolisib + Crizotinib; first compound 0.2 µM): 0.155
